Reference: PMC12040169 (PLOS Biology, 2025)

Assay: in vitro
Settings: human, hela cells, % viability

Compound	viability at 28.5 h, 10 µM [%]
O=C1COc2ccc(S(=O)(=O)NCc3ccccc3)cc2N1 [CBK270156]	93.7
Cc1ccc(NC2=NC3(N=C(N)N2)C(=O)N(C)c2ccccc23)cc1 (stereo not drawn) [CBK270157]	84.9
Cc1cc2c(cc1S(=O)(=O)NCc1ccccc1)NC(=O)CO2 [CBK270159]	85.2
COc1ccc(CCNC(=O)c2n[nH]c(=O)c3ccccc23)cc1OC [CBK270160]	87.6
O=C1COc2ccc(S(=O)(=O)NCCc3ccccc3)cc2N1 [CBK270162]	114
Cc1ccc(Nc2nc(N)nc(CN3CCCC3)n2)cc1 [CBK270163]	97.7
Cc1cc(C)nc(-n2[nH]c(N)cc2=O)n1 [CBK270164]	85.7
CCc1nnc(SCC(=O)Nc2cc(OC)ccc2OC)[nH]1 [CBK270167]	85.1
CCCNS(=O)(=O)c1ccc(OCC(=O)N2CCN(C)CC2)c(C)c1 [CBK270169]	102
Cc1ccc(Cc2c(C)nc(N3CCN(Cc4ccccc4)CC3)[nH]c2=O)cc1 [CBK270170]	115
CCc1c(C)nc(SC(C(=O)O)c2ccccc2)c(C#N)c1C (stereo not drawn) [CBK270174]	94.9
O=C(O)C1=NN(c2ccccc2)C(=O)CC1 [CBK270176]	84.4
CCOc1ccc(S(=O)(=O)NC(C)C(=O)O)cc1C (stereo not drawn) [CBK270178]	114
CNS(=O)(=O)c1cc(C(=O)O)ccc1OC [CBK270179]	104
CCCSc1ccc2[nH]c(NC(=O)CSc3nc[nH]n3)nc2c1 [CBK270181]	51.8
O=C(NCc1ccc(-c2nc3ncccc3o2)cc1)c1ccc(F)cc1 [CBK270182]	91.3
CCn1c(CN2CCOCC2)nnc1SCC(=O)Nc1cc(Cl)ccc1C [CBK270183]	93.8
Nc1c(C(=O)c2ccc3c(c2)OCO3)sc2nc(-c3cccnc3)ccc12 [CBK270186]	86.3
CN(C)c1nc(NC2CC2)nc(Oc2ccc(=O)n(-c3ccccc3)n2)n1 [CBK270187]	93.9
CC(=O)c1cc(C#N)c(SCC(=O)O)nc1C [CBK270189]	95.8
COCc1cc(C)n(CC(=O)Nc2ccc(N3CCOCC3)cc2)c(=O)c1C#N [CBK270190]	95.2

Compound	viability at 28.5 h, 10 µM [%]
N#Cc1cnc2c(-c3ccccc3)c(Cc3ccccc3)nn2c1N [CBK270191]	91.8
CNS(=O)(=O)c1cc(C(=O)N2CCN(c3ccccc3)CC2)ccc1OC [CBK270192]	88.9
O=C(O)c1cccc(CSc2nc3ccccc3o2)c1 [CBK270193]	91.7
O=C(NCc1cccnc1)c1cc2c(ccc3ccccc32)oc1=O [CBK270195]	95.7
Cc1cc2c(cc1S(=O)(=O)NCCc1ccccc1)NC(=O)CO2 [CBK270196]	102
Cc1ccc(-c2noc(CNC(=O)CSc3ccccc3)n2)cc1 [CBK270199]	91.5
COc1cc(CNCc2ccco2)ccc1OCC(N)=O [CBK270204C]	105
Cc1c(C(=O)NCCCN2CCOCC2)oc2c1C(=O)CCC2 [CBK270207]	93.1
O=S(=O)(NCCn1cccc1)c1ccc2ccccc2c1 [CBK270211]	90.4
COc1c(Cl)cc(Cl)cc1CNC(C)(C)CO [CBK270212C]	102
COc1ccc(NC(=O)CSc2ncnc3ccccc23)cc1 [CBK270215]	94
COc1ccc(NS(=O)(=O)c2ccc(N3CCCC3=O)cc2)cn1 [CBK270216]	84.9
Cc1cc(NC(=O)c2sc3nc4c(cc3c2N)N2CCC4CC2)no1 [CBK270217]	100
COc1ccc(C(NC(C)=O)c2nccc3cc(OC)c(OC)cc23)cc1OC (stereo not drawn) [CBK270219]	94.6
O=c1cc(O)c2sc3nc(-c4ccco4)cc(C(F)(F)F)c3c2[nH]1 [CBK270223]	98.2
CCc1nnc(SCC(=O)Nc2cccc(OC)c2)[nH]1 [CBK270226]	93.7
COCc1cc(C)nc(OCC(=O)N2CCCCC2)c1C#N [CBK270228]	104
COc1ccc2c(C)nc(NC3=NC(c4ccccc4)CC(=O)N3)nc2c1 (stereo not drawn) [CBK270230]	85.4
O=C(O)CC(Cc1ccccc1)c1ccc(Cl)cc1 (stereo not drawn) [CBK270231]	89.6
CC(O)CNCc1ccc(OCC(=O)NC(C)(C)C)cc1 (stereo not drawn) [CBK270232C]	87.1
COc1ccc(Cl)cc1S(=O)(=O)NC(C)C(=O)O (stereo not drawn) [CBK270233]	106

Compound	viability at 28.5 h, 10 µM [%]
c1cc(CSc2nnc(-c3ccncc3)o2)ccn1 [CBK270235]	92.3
CCc1[nH]nc2c1C(C1C=CCCC1)C(C#N)=C(N)O2 (stereo not drawn) [CBK270236]	92.9
COc1cc(CNCc2cccs2)cc(Cl)c1OCC(N)=O [CBK270237C]	87.6
COc1cc(CNCC2CCCO2)cc(Cl)c1OCC(N)=O (stereo not drawn) [CBK270238C]	88.4
Cc1nnc(CSc2nnc(-c3ccc(Cl)cc3)[nH]2)o1 [CBK270241]	102
Cn1c(=O)n(C)c2cc(CNc3nn[nH]n3)ccc21 [CBK270243]	92.4
Cc1ccc(-c2nnc(SCC(=O)Nc3ccc(N4CCOCC4)cc3)n2C)cc1 [CBK270247]	111
O=C(Nc1ccc(-n2cc(Cl)cn2)cc1)c1ccncc1 [CBK270249]	88.2
N#Cc1c(Nc2cccc(F)c2)sc2c(O)cc(O)nc12 [CBK270250]	100
COc1ccc(C(=O)Nc2c(Cl)ccc3nsnc23)cc1 [CBK270252]	87.2
COCc1cc(=O)[nH]c(N2CCN(Cc3ccccc3)CC2)n1 [CBK270253]	88.4
Cc1nn(-c2nc3ccccc3s2)c(O)c1C [CBK270254]	87.8
O=C(Nc1cccc(-c2csnn2)c1)c1ccco1 [CBK270255]	85.2
COC(=O)c1ccc(N2CCOCC2)c(NC(=O)c2cccnc2)c1 [CBK270257]	95.9
CCn1c(CN2CCOCC2)nnc1SCC(=O)Nc1cc(C)cc(C)c1 [CBK270258]	95.9
O=C(CN1C(=O)COc2ccccc21)NC1CC1 [CBK270261]	96
CCOC(=O)c1ccc(N2CCN(C(C)=O)CC2)c(NC(=O)c2cccc(F)c2)c1 [CBK270263]	93.8
COc1ccc(C(=O)Nc2ccc(N3CCN(C(=O)C(C)(C)C)CC3)cc2)cc1 [CBK270266]	99
CCN1CCN(c2ccc(C(=O)OC)cc2NC(=O)c2ccccc2Cl)CC1 [CBK270267]	98.3
Cc1ccc2nc(-c3ccccc3)c(C)c(C(=O)O)c2c1 [CBK270268]	87.6
COc1ccc(C)cc1NC(=O)C1CC(=O)Nc2ncnn21 (stereo not drawn) [CBK270274]	99.5

Compound	viability at 28.5 h, 10 µM [%]
CC(C)Oc1cccc(C(=O)Nc2ccc(N3CCN(C(=O)C(C)(C)C)CC3)cc2)c1 [CBK270280]	88.7
Cc1ccc(OCC(=O)Nc2cccnc2)c(-n2nc3ccccc3n2)c1 [CBK270281]	90.9
Cc1ccc(Cl)cc1N1CCN(S(=O)(=O)N(C)C)CC1 [CBK270284]	101
CN1C(=O)C2(N=C(N)NC(Nc3ccc(F)cc3)=N2)c2ccccc21 (stereo not drawn) [CBK270285]	94.8
COc1ccc(-c2noc(CN(C)C(=O)c3cccs3)n2)cc1 [CBK270286]	89.6
CCOc1ccc(S(=O)(=O)N2CCC(C(=O)N3CCOCC3)CC2)cc1Cl [CBK270288]	93.8
CCn1c(SCC(N)=O)nnc1C(C)Oc1ccc(C)c(C)c1 (stereo not drawn) [CBK270289]	88.4
Cc1ccnc(SCc2ccc(F)cc2Cl)n1 [CBK270290]	87.4
c1ccc(SCc2csc(-c3ccc4c(c3)OCO4)n2)nc1 [CBK270294]	87.7
CCN1CCN(C(=O)C2CC=CCC2C(=O)O)CC1 (stereo not drawn) [CBK270295]	91.6
O=S(=O)(c1ccc(Cl)s1)N1CCN(c2ccccn2)CC1 [CBK270305]	110
CCn1cc(S(=O)(=O)NCc2ccccc2F)cn1 [CBK270306]	91.6
COc1ccc(C(C)NC(=O)C2CCCCC2C(=O)O)cc1OC (stereo not drawn) [CBK270309]	91.1
CCN1CCN(C(=O)C2CC(C)=C(C)CC2C(=O)O)CC1 (stereo not drawn) [CBK270311]	87.1
CCc1c(C)sc(NC(=O)CSc2nnnn2C)c1C(=O)OC [CBK270312]	90.7
CCOc1ccc(S(=O)(=O)Nc2cnccn2)cc1 [CBK270313]	121
CCc1ccc(NS(=O)(=O)c2cnn(CC)c2)cc1 [CBK270314]	101
CCCCS(=O)(=O)N1CCN(CCc2ccccc2)CC1 [CBK270316]	87.3
CC(NC(=O)c1ccc(F)cc1Cl)c1ccccc1 (stereo not drawn) [CBK270317]	89.3
O=C(O)C1C2C=CC(C2)C1C(=O)N1CCN(Cc2ccc(Cl)cc2)CC1 (stereo not drawn) [CBK270318]	83.8
O=C(NC1CC1)c1ccsc1NC(=O)C1C2C=CC(C2)C1C(=O)O (stereo not drawn) [CBK270322]	98.7
